# Experimental data published in paper PMC8252026, “Photochemical Probe Identification of a Small‐Molecule Inhibitor Binding Site in Hedgehog Acyltransferase (HHAT)” (Angewandte Chemie (International Ed. in English), 2021).
# Entries after “also recorded” stand apart in the source; their conditions may differ.
# Tests used:
# [1] = molecular target: T1, human HHAT (Homo sapiens, UniProt Q5VTY9); assay: Acyl-cLIP assay, dose-response inhibition of purified HHAT; type: biochemical; conditions: for HHAT inhibition (in words) / IC50: purified HHAT; for HHAT inhibition (in words): Acyl-cLIP; for IC50: real-time Acyl-cLIP, mean and 95 % CI, n=3
# T1 construct: Full-length human HHAT (UniProt Q5VTY9); made in house
# T1 sequence (Q5VTY9 whole entry): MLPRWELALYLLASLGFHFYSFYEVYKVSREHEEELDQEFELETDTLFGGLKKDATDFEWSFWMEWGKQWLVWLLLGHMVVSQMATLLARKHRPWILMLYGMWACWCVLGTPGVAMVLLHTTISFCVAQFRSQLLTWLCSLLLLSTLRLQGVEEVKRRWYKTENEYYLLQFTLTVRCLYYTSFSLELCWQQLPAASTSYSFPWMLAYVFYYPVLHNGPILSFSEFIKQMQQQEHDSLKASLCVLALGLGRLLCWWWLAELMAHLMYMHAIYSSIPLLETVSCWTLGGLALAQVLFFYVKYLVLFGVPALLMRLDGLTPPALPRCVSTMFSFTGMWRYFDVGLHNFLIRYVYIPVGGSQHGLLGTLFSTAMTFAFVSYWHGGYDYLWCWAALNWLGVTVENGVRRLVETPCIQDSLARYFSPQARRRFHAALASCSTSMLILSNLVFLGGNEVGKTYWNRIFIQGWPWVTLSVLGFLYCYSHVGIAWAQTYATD
# Description: We recently reported the acylation‐coupled lipophilic induction of polarization (Acyl‐cLIP) assay, a facile and universally applicable method to monitor enzymes processing lipid post‐translational modifications which uses the hydrophobicity increase on lipidation to drive a polarized fluorescence readout. ^[15] Dose‐response analysis of inhibition of purified HHAT was conducted using real‐time Acyl‐cLIP analysis (Table 1).
# AMBIC (ammonium bicarbonate); CDI (1,1’-carbonyldiimidazole); DCM (dichloromethane); DDM (n-dodecyl-β-D-maltopyranoside); DIPEA (N,N-diisopropylethylamine); DMF (dimethylformamide); DTT (dithiothreitol); EDTA (ethylenediaminetetraacetic acid); FAM (5/6-carboxyfluorescein); HEPES (4-(2-hydroxyethyl)-1-piperazineethanesulfonic acid); HOBt (hydroxybenzotriazole); TBME (tert-butyl methyl ether); TBTA (tris[(1-benzyl-1H-1,2,3-triazol-4-yl)methyl]amine); TCEP (tris(2-carboxyethyl)phosphine hydrochloride); TEA (triethylamine); TFA (trifluoroacetic acid); THF (tetrahydrofuran); TRIS (tris(hydroxymethyl)aminomethane).
# All reagents were purchased from commercial sources (Sigma-Aldrich, Fisher Scientific, Acros Organics, Novabiochem) and used without further purification.
# Pal-CoA (Sigma Aldrich) was stored in NaOAc (0.1 M, pH 6.0) at -80 °C. RUSKI-201 (1) was synthesised as previously described.[1b] The peptide comprising of residues 24-43 of SHH (residues 1-10 of the mature protein) labelled with 5/6-carboxyfluorescein (SHH-FAM) was prepared as previously described.
# Mixtures described as % represent v/v unless otherwise stated.
# Biological and Biochemical Methods
# Full-length human HHAT (UniProt Q5VTY9) C -terminally fused with a 1D4 epitope tag was expressed and purified via antibody purification with Rho -1D4 antibody (University of British Columbia) coupled to CNBr-activated sepharose beads (GE Healthcare) as previously described.[9] Purified HHAT 0.1-0.2 mg/mL in storage buffer (10 mM HEPES, 150 mM NaCl, 5% glycerol, 0.025% (w/v) DDM, 0.0006% (w/v) cholesterol-hemisuccinate, pH 7.5) was flash-frozen in liquid nitrogen and stored at -80 °C.
# The Acylation-coupled Lipophilic Induction of Polarisation (Acyl -cLIP) was performed as previously described,[9] using Rho-1D4 antibody purified HHAT. Briefly, HHAT was diluted to 45 µg/mL in solubilisation buffer (20 mM HEPES, 350 mM NaCl, 1% (w/v) DDM, 5% glycerol, pH 7.3) added to SHH-FAM (2 µM) in reaction buffer (100 mM MES, 20 mM NaCl, 1 mM DTT, 1 mM TCEP, 0.1% (w/v) BSA, pH 6.5) in a 1:10 (v/v) ratio, respectively. The HHAT/SHH-FAM solution (12 µL/well) was dispensed into a black 384-well plate (Corning, 3575). The reaction was initiated by addition of Pal-CoA (7.5 µM) in reaction buffer (8 µL/well), and fluorescence anisotropy measured every 1 min for 1 h on an EnVision Xcite 2104 (PerkinElmer).
# Measurement used a FITC FP D505fp mirror module, FITC FP 480 nm excitation filter (30 nm bandwidth), FITC FP P-pol 535 nm first emission filter (40 nm bandwidth), and FITC FP S-pol […]
# (§1) 535 nm second emission filter (40 nm bandwidth), measurement height = 9.52 mm, 8 flashes/well, PMT gain = 319, and G-factor = 1.09. Fluorescence anisotropy was calculated […]
# (§2) Where S is signal in the S-channel, P is signal in the P-channel, and G is the G-factor.
# (§3) Assay data were evaluated using Microsoft Excel 2013 and GraphPad Prism 5.0. Initial rate constants were determined by linear regression, normalized to DMSO negative controls and background corrected to positive controls with solubilization buffer instead of HHAT. The half-maximal inhibitory concentration (IC 50) was calculated using a 4-parameter sigmoidal dose-response curve fit. Determination of the mechanism of inhibition of IMP -1575 relative to Pal-CoA was performed by fitting equation 2 for a mixed model of inhibition[10] using nonlinear […]
# Where v is the observed rate of reaction, Vmax is the maximum rate, [I] is the inhibitor concentration, [S] is the substrate concentration, Km is the substrate concentration at ½ Vmax, […]
# [2] = molecular target: T1, human HHAT; assay: Acyl-cLIP inhibition kinetics at varying Pal-CoA concentrations (mixed model of inhibition); type: biochemical
# Description: IMP‐1575 (50–0.023 μM) was therefore analyzed for effects on HHAT kinetics at varying Pal‐CoA concentrations (50–0.19 μM, Figure 3 B,C).
# as §1, §2, §3
# Where v is the observed rate of reaction, Vmax is the maximum rate, [I] is the inhibitor concentration, [S] is the substrate concentration, Km is the substrate concentration at ½ Vmax, Ki is the affinity of the inhibitor for the free enzyme, and α is the ratio of the affinity of the inhibitor for the enzyme-substrate complex (Ki’) to Ki (typically noted as Ki’/Ki).
# Density-Functional Theory Modelling
# Density-functional theory (DFT) predictions were performed using Gaussian 16 [11] and Orca (version 4.0.1.2).[12] The compound 6 structure was initially created using Avogadro software (1.2.0) and geometry -optimised using an MMFF94s force field. Avogadro was also employed to explore conformers of the structure using a “systematic rotor search”. DFT geometry optimisations were initially carried out on the MMFF94s optimised structures using either the 6-31G basis set (for the B3LYP and M062X functionals) or the def2/SVP basis set (for the CAM-B3LYP functional). Structures were then optimised with a higher -level basis set (6-311++G(d,p), for the B3LYP and M062X functional, and def2/TZVP for the CAM-B3LYP functional). […]
# [3] = molecular target: T1, human HHAT; assay: Photocrosslinking to purified HHAT, CalFluor-647 CuAAC and in-gel fluorescence; type: binding; conditions: for crosslinking of probe to HHAT (in-gel fluorescence): probe 10 μM, purified HHAT, UV 365 nm 1 min
# Text: These new insights led to design of photocrosslinking chemical probes 10 and 11 to investigate the small‐molecule binding site in HHAT (Figure 2 A). In probe 10 the secondary amine moiety was exchanged for a diazirine group, and the terminal alkyl chain replaced with an alkyne; probe 11 contains an additional carbon between the carbonyl and diazirine. The diazirine allows photoactivated chemical crosslinking to nearby residues in HHAT, with the alkyne allowing biorthogonal functionalization via copper(I)‐catalyzed azide‐alkyne cycloaddition (CuAAC, “click chemistry”) for subsequent analysis. […] The sidechains were synthesized and coupled to 2 (Scheme S4,5). […] Protein crosslinking was next investigated through CuAAC functionalization with a fluorophore and in‐gel fluorescence readout. As an integral membrane protein, HHAT presents substantial challenges in sample handling and cannot be precipitated to remove excess fluorophore which otherwise binds non‐specifically (data not shown). Fluorogenic azide CalFluor‐647 (Figure S8) ^[18] was therefore used to reduce background fluorescence from dye that had not reacted with alkyne probe. 10 or 11 (10 μM) were incubated with purified HHAT with or without UV irradiation (1 min). […]
# Molecule for alignment. Compounds 1-9 (R)-enantiomers and IC50 values from the Acyl-cLIP assay were used as a Training Set . For the purpose of analysis of weakly active inhibitors, […]
# Conformation Hunt was set to Normal, Alignment set to Normal, and Build Model set to Field
# QSAR. Probes 10 and 11 were used as a Prediction Set .
# Photoactivation Analysis by LC/MS
# A solution of 10 or 11 (100 μM) in water was cooled on ice and irradiated using a custom-made UV light source (365 nm, 25 mW/cm2) for the indicated times. […]
# All steps were performed in the dark in a cold room (4 °C), until specified otherwise. […] The gel was run until the loading dye had eluted from the gel (typically 55 min at 200 V) and the in-gel fluorescence […]
# recorded (Excitation: 635 nm Emission: 669 nm) on a Typhoon FLA 9500 (GE Healthcare). […]
# [4] = Photoactivation analysis by LC/MS under UV irradiation (365 nm); type: physicochemical; conditions: 100 μM in water on ice
# [5] = molecular target: HHAT; parameters: method as in PMID 23416332; conditions: reported as noncompetitive with Pal-CoA; cited from earlier work
SMILES,HHAT inhibition (in words) [1],IC50 [1],further results
"Cc1cccc(C2c3ccsc3CCN2C(=O)CNCC(C)C)n1 (single isomer, unassigned; (-)) [(-)-6]",no HHAT inhibition,> 50 µM,–
Cc1cccc([C@H]2c3ccsc3CCN2C(=O)CNCC(C)C)n1 [(+)-6],–,0.75 µM,"Ki ([2]; competitive with respect to Pal-CoA, IMP-1575 50-0.023 μM, Pal-CoA 50-0.19 μM, mixed model fit): 0.038 µM; mode of inhibition with respect to Pal-CoA ([2]; mixed model analysis): competitive; α (mixed model equation for inhibition) ([2]; ratio Ki'/Ki, with respect to Pal-CoA): 470; potency compared to (+/-)-6 ([1]; from Acyl-cLIP IC50): two‐fold increased potency; competition of probe 11 crosslinking to HHAT ([3]; 40-fold excess IMP-1575 (400 μM) vs probe 11 (10 μM)): reduced crosslinking to near background levels"
Cc1cccc(C2NCCc3sccc32)n1 (stereo not shown) [Compound 2],no inhibition,> 50 µM,–
CC(=O)N1CCc2sccc2C1c1cccc(C)n1 (stereo not shown) [Compound 3],–,13 µM,–
CC[C@H](C)CNCC(=O)N1CCc2sccc2C1c1cccc(C)n1 (stereo partly shown) [Compound 4],–,3.7 µM,fold reduced potency compared to 1 ([1]; from Acyl-cLIP IC50): ≈ 2 fold
Cc1cccc(C2c3ccsc3CCN2C(=O)CNCCC(C)C)n1 (stereo not shown) [Compound 5],–,5.8 µM,–
Cc1cccc(C2c3ccsc3CCN2C(=O)CNCC(C)C)n1 (stereo not shown) [Compound 6],–,1.3 µM,–
CCC(C)CNCC(=O)N1CCc2sccc2C1COc1cccc(C)c1 (stereo not shown) [RUSKI-43],–,–,Ki [5]: 6.9 µM

# Now from value to molecule, other results behind:
HHAT inhibition (in words) [1],IC50 [1],SMILES,further results
substantially reduced activity,~25 µM,Cc1cccc(C2c3ccsc3CCN2C(=O)CN(C)CC(C)C)n1 (stereo not shown) [Compound 7],–
substantially reduced activity,~50 µM,Cc1cccc(C2c3ccsc3CCN2C(=O)CN2CCCC(C)C2)n1 (stereo not shown) [Compound 8],–
substantially reduced activity,~50 µM,Cc1cccc(C2c3ccsc3CCN2C(=O)NCCC(C)C)n1 (stereo not shown) [Compound 9],–
–,16 µM,C#CCCC1(CC(=O)N2CCc3sccc3C2c2cccc(C)n2)N=N1 (stereo not shown) [Compound 10],activation half-life [4]: 3.3 min; crosslinking of probe to HHAT (in-gel fluorescence) [3]: minimal crosslinking; also recorded: minimal labelling
–,2.4 µM,C#CCCC1(CCC(=O)N2CCc3sccc3C2c2cccc(C)n2)N=N1 (stereo not shown) [Compound 11],activation half-life [4]: 0.533 min; crosslinking of probe to HHAT (in-gel fluorescence) [3]: crosslinking of probe 11 to HHAT promoted by UV irradiation; also recorded: enhanced labelling with UV irradiation
